Assay results as given in publication PMC12670405, “Second-Generation AURKA-Targeting PROTACs: Structural Optimization toward in Vivo Degradation in Neuroblastoma” (Journal of Medicinal Chemistry, 2025).

Key:
Test in all cases: KINOMEscan scanMAX
Type in all cases: binding
Details in all cases: read-out: Percent Control
ADCK3 = target: T1, ADCK3 (Homo sapiens, UniProt Q8NI60)
T1 construct: purchased Eurofins Discovery (DiscoverX KINOMEscan scanMAX)
Description: (§1) The kinome-wide binding assay was performed by Eurofins Discovery using the scanMAX screening platform. More information can be found on the Eurofins Discovery Web site.

ANKK1 = target: T2, ANKK1 (Homo sapiens, UniProt Q8NFD2)
T2 construct: purchased Eurofins Discovery (DiscoverX KINOMEscan scanMAX)
Description: as §1

BRSK2 = target: T3, BRSK2 (Homo sapiens, UniProt Q8IWQ3)
T3 construct: purchased Eurofins Discovery (DiscoverX KINOMEscan scanMAX)
Description: as §1

CAMK2D = target: T4, CAMK2D (Homo sapiens, UniProt Q13557)
T4 construct: purchased Eurofins Discovery (DiscoverX KINOMEscan scanMAX)
Description: as §1

CASK = target: T5, CASK (Homo sapiens, UniProt O14936)
T5 construct: purchased Eurofins Discovery (DiscoverX KINOMEscan scanMAX)
Description: as §1

CDC2L1 = target: T6, CDC2L1 (Homo sapiens, UniProt P21127)
T6 construct: purchased Eurofins Discovery (DiscoverX KINOMEscan scanMAX)
Description: as §1

CDK5 = target: T7, CDK5 (Homo sapiens, UniProt Q00535)
T7 construct: purchased Eurofins Discovery (DiscoverX KINOMEscan scanMAX)
Description: as §1

CDK7 = target: T8, CDK7 (Homo sapiens, UniProt P50613)
T8 construct: purchased Eurofins Discovery (DiscoverX KINOMEscan scanMAX)
Description: as §1

DAPK3 = target: T9, DAPK3 (Homo sapiens, UniProt O43293)
T9 construct: purchased Eurofins Discovery (DiscoverX KINOMEscan scanMAX)
Description: as §1

DDR2 = target: T10, DDR2 (Homo sapiens, UniProt Q16832)
T10 construct: purchased Eurofins Discovery (DiscoverX KINOMEscan scanMAX)
Description: as §1

DYRK2 = target: T11, DYRK2 (Homo sapiens, UniProt Q92630)
T11 construct: purchased Eurofins Discovery (DiscoverX KINOMEscan scanMAX)
Description: as §1

EGFR(T790M) = target: T12, EGFR(T790M) (Homo sapiens, UniProt P00533, T790M)
T12 construct: purchased Eurofins Discovery (DiscoverX KINOMEscan scanMAX)
Description: as §1

EPHB1 = target: T13, EPHB1 (Homo sapiens, UniProt P54762)
T13 construct: purchased Eurofins Discovery (DiscoverX KINOMEscan scanMAX)
Description: as §1

EPHB4 = target: T14, EPHB4 (Homo sapiens, UniProt P54760)
T14 construct: purchased Eurofins Discovery (DiscoverX KINOMEscan scanMAX)
Description: as §1

FGFR3 = target: T15, FGFR3 (Homo sapiens, UniProt P22607)
T15 construct: purchased Eurofins Discovery (DiscoverX KINOMEscan scanMAX)
Description: as §1

FLT3(R834Q) = target: T16, FLT3(R834Q) (Homo sapiens, UniProt P36888, R834Q)
T16 construct: purchased Eurofins Discovery (DiscoverX KINOMEscan scanMAX)
Description: as §1

GRK1 = target: T17, GRK1 (Homo sapiens, UniProt Q15835)
T17 construct: purchased Eurofins Discovery (DiscoverX KINOMEscan scanMAX)
Description: as §1

GSK3A = target: T18, GSK3A (Homo sapiens, UniProt P49840)
T18 construct: purchased Eurofins Discovery (DiscoverX KINOMEscan scanMAX)
Description: as §1

INSRR = target: T19, INSRR (Homo sapiens, UniProt P14616)
T19 construct: purchased Eurofins Discovery (DiscoverX KINOMEscan scanMAX)
Description: as §1

KIT-autoinhibited = target: T20, KIT-autoinhibited (Homo sapiens, UniProt P10721)
T20 construct: purchased Eurofins Discovery (DiscoverX KINOMEscan scanMAX)
Description: as §1

MAPKAPK2 = target: T21, MAPKAPK2 (Homo sapiens, UniProt P49137)
T21 construct: purchased Eurofins Discovery (DiscoverX KINOMEscan scanMAX)
Description: as §1

MEK4 = target: T22, MEK4 (Homo sapiens, UniProt P45985)
T22 construct: purchased Eurofins Discovery (DiscoverX KINOMEscan scanMAX)
Description: as §1

PAK7 = target: T23, PAK7 (Homo sapiens, UniProt Q9P286)
T23 construct: purchased Eurofins Discovery (DiscoverX KINOMEscan scanMAX)
Description: as §1

PIK3CG = target: T24, PIK3CG (Homo sapiens, UniProt P48736)
T24 construct: purchased Eurofins Discovery (DiscoverX KINOMEscan scanMAX)
Description: as §1

PIM3 = target: T25, PIM3 (Homo sapiens, UniProt Q86V86)
T25 construct: purchased Eurofins Discovery (DiscoverX KINOMEscan scanMAX)
Description: as §1

RIPK2 = target: T26, RIPK2 (Homo sapiens, UniProt O43353)
T26 construct: purchased Eurofins Discovery (DiscoverX KINOMEscan scanMAX)
Description: as §1

[1] = target: T27, RPS6KA5(Kin.Dom.1-N-terminal) (Homo sapiens, UniProt O75582)
T27 construct: RPS6KA5(Kin.Dom.1-N-terminal); purchased Eurofins Discovery (DiscoverX KINOMEscan scanMAX)
Description: as §1

SGK3 = target: T28, SGK3 (Homo sapiens, UniProt Q96BR1)
T28 construct: purchased Eurofins Discovery (DiscoverX KINOMEscan scanMAX)
Description: as §1

SIK = target: T29, SIK (Homo sapiens, UniProt P57059)
T29 construct: purchased Eurofins Discovery (DiscoverX KINOMEscan scanMAX)
Description: as §1

TNK2 = target: T30, TNK2 (Homo sapiens, UniProt Q07912)
T30 construct: purchased Eurofins Discovery (DiscoverX KINOMEscan scanMAX)
Description: as §1

WEE1 = target: T31, WEE1 (Homo sapiens, UniProt P30291)
T31 construct: purchased Eurofins Discovery (DiscoverX KINOMEscan scanMAX)
Description: as §1

WEE2 = target: T32, WEE2 (Homo sapiens, UniProt P0C1S8)
T32 construct: purchased Eurofins Discovery (DiscoverX KINOMEscan scanMAX)
Description: as §1

WNK4 = target: T33, WNK4 (Homo sapiens, UniProt Q96J92)
T33 construct: purchased Eurofins Discovery (DiscoverX KINOMEscan scanMAX)
Description: as §1

p38-alpha = target: T34, p38-alpha (Homo sapiens, UniProt Q16539)
T34 construct: purchased Eurofins Discovery (DiscoverX KINOMEscan scanMAX)
Description: as §1

T30 sequence (Q07912 whole entry): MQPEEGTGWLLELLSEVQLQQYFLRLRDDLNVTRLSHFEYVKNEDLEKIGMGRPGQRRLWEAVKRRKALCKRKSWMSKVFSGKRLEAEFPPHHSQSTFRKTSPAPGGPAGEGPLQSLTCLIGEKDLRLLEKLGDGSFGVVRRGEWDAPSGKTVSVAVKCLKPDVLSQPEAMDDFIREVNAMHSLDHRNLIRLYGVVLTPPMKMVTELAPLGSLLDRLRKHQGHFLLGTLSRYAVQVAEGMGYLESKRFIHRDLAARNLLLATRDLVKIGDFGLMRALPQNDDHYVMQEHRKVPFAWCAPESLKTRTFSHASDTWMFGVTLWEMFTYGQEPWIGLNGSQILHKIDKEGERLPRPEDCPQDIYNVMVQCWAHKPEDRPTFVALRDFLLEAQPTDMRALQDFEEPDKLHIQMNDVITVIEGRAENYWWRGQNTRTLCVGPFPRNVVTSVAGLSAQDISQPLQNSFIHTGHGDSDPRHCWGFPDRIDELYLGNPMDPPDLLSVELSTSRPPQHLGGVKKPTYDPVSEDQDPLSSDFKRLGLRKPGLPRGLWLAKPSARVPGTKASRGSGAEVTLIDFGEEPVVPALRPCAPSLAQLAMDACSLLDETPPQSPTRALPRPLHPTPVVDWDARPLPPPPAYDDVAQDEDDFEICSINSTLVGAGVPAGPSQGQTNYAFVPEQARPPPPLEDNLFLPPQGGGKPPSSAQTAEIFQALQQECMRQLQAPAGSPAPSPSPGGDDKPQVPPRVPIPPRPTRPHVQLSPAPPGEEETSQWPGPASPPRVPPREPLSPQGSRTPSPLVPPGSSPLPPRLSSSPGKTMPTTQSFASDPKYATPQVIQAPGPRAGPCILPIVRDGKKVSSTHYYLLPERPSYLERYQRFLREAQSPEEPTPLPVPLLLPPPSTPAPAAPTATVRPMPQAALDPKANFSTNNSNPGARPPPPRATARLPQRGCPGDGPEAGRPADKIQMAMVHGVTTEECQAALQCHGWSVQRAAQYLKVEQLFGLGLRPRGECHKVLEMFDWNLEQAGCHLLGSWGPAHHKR
T33 sequence (Q96J92 whole entry): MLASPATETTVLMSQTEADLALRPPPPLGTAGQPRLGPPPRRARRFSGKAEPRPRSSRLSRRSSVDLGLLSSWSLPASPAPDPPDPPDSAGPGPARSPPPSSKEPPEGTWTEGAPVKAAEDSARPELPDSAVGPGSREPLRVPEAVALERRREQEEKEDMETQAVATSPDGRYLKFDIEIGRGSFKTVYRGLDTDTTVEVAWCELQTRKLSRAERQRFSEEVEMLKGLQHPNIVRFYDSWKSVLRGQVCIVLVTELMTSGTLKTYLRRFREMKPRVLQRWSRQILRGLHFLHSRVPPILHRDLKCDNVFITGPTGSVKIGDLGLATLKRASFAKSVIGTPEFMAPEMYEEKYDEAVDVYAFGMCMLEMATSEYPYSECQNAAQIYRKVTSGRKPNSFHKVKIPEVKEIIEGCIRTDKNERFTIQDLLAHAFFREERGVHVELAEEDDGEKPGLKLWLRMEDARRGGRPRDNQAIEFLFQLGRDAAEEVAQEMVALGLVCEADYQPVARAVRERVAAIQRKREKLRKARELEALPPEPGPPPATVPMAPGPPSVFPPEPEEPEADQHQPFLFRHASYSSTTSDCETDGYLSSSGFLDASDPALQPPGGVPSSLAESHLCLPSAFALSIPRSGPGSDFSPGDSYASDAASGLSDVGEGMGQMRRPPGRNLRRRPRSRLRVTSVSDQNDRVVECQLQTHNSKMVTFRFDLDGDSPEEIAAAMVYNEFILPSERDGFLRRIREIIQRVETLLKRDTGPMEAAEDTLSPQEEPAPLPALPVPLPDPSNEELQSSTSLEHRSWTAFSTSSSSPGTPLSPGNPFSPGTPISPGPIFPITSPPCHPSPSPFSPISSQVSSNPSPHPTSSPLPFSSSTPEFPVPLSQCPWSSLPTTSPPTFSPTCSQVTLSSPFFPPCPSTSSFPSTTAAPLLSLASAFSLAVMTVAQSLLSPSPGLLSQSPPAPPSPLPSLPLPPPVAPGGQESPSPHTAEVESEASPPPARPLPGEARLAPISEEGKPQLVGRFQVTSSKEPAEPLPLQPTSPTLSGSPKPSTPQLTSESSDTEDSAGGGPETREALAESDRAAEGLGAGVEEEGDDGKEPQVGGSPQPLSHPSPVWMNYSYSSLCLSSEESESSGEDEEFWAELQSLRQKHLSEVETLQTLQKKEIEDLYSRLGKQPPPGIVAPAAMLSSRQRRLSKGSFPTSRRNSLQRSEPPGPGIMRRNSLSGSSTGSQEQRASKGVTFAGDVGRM
T23 sequence (Q9P286 whole entry): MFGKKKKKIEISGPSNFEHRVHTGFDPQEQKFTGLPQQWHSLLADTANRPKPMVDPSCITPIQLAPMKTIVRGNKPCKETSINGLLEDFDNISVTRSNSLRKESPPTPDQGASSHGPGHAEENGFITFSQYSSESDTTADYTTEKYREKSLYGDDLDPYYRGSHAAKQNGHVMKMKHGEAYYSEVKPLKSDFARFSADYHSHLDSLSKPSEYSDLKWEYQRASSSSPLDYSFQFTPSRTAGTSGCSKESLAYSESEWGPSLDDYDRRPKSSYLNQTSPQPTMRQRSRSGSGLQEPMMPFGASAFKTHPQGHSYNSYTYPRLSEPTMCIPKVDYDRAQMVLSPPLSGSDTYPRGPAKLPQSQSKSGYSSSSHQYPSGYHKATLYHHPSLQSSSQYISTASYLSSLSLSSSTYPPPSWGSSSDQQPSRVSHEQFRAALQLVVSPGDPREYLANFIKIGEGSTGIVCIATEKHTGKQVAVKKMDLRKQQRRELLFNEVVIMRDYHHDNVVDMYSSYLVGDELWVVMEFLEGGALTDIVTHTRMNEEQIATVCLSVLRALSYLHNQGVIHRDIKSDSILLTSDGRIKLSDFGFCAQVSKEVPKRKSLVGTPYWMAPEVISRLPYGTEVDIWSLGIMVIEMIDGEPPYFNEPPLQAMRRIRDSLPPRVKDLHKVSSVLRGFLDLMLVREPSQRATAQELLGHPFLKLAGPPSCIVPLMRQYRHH
T13 sequence (P54762 18-984): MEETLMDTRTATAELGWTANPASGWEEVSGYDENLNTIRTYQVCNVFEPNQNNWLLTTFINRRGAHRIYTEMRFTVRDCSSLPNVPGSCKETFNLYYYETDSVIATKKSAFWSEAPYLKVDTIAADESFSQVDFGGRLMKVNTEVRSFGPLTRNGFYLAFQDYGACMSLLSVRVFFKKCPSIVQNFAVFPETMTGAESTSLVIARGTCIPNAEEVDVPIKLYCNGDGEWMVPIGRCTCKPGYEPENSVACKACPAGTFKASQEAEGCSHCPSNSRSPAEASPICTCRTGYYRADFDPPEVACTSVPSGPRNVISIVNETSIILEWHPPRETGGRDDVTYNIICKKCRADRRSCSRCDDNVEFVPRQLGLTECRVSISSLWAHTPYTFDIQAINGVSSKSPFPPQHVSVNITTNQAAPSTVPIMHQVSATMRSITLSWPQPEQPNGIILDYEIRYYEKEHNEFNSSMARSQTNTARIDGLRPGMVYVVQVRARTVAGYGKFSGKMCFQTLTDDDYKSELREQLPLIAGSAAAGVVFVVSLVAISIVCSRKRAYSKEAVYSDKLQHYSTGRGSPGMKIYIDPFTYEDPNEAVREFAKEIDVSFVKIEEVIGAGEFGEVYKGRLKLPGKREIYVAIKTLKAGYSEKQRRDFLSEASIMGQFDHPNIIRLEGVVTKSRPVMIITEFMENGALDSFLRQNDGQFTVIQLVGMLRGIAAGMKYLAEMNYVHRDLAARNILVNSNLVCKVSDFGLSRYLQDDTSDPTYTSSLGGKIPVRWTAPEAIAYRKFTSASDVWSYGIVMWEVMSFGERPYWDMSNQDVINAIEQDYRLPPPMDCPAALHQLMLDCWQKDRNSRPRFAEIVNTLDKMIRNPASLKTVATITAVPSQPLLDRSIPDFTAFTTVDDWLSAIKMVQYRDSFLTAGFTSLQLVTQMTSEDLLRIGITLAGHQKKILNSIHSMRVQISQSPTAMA
T11 sequence (Q92630 whole entry): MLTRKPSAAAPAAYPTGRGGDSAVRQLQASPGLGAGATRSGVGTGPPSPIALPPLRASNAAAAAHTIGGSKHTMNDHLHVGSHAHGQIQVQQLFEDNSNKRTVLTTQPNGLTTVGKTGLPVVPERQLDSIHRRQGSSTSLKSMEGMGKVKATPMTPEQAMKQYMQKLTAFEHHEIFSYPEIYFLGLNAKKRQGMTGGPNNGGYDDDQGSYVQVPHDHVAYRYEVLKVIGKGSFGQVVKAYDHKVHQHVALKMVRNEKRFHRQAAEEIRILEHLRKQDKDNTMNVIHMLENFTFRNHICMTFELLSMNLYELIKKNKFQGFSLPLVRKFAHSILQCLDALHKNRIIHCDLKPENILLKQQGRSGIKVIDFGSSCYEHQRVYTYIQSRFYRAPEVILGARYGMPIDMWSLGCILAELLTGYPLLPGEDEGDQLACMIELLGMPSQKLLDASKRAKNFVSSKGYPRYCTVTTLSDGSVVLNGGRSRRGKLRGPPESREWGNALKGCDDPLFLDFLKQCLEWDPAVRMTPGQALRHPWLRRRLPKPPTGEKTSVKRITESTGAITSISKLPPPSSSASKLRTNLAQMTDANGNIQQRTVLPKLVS
T27 sequence (O75582 1-387 limits assumed): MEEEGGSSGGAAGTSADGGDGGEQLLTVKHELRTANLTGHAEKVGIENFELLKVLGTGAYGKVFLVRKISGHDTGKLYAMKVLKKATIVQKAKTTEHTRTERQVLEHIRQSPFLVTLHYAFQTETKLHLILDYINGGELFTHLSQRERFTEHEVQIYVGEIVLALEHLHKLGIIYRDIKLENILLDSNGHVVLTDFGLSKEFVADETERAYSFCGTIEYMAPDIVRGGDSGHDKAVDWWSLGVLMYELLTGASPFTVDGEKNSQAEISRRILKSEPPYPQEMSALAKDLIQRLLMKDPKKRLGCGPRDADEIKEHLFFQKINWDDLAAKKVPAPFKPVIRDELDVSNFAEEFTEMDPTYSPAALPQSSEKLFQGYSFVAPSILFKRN

Compound: Cc1cc(Nc2ccc(F)c(CC3(C(=O)N4CCC(F)(CN5CCN(c6ccc(N7CCC(=O)NC7=O)cn6)CC5)CC4)CCN(Cc4cccc(Cl)c4F)CC3)n2)n[nH]1 [SK5527]
- remaining binding at 0.1 µM (ADCK3; 100 nM): 100%
- remaining binding at 1 µM (ADCK3; 1000 nM): 99%
- remaining binding at 0.1 µM (ANKK1; 100 nM): 73%
- remaining binding at 1 µM (ANKK1; 1000 nM): 71%
- remaining binding at 0.1 µM (BRSK2; 100 nM): 100%
- remaining binding at 1 µM (BRSK2; 1000 nM): 100%
- remaining binding at 0.1 µM (CAMK2D; 100 nM): 95%
- remaining binding at 1 µM (CAMK2D; 1000 nM): 93%
- remaining binding at 0.1 µM (CASK; 100 nM): 93%
- remaining binding at 1 µM (CASK; 1000 nM): 87%
- remaining binding at 0.1 µM (CDC2L1; 100 nM): 98%
- remaining binding at 1 µM (CDC2L1; 1000 nM): 95%
- remaining binding at 0.1 µM (CDK5; 100 nM): 100%
- remaining binding at 1 µM (CDK5; 1000 nM): 100%
- remaining binding at 0.1 µM (CDK7; 100 nM): 91%
- remaining binding at 1 µM (CDK7; 1000 nM): 100%
- remaining binding at 0.1 µM (DAPK3; 100 nM): 100%
- remaining binding at 1 µM (DAPK3; 1000 nM): 100%
- remaining binding at 0.1 µM (DDR2; 100 nM): 98%
- remaining binding at 1 µM (DDR2; 1000 nM): 100%
- remaining binding at 0.1 µM (DYRK2; 100 nM): 100%
- remaining binding at 1 µM (DYRK2; 1000 nM): 80%
- remaining binding at 0.1 µM (EGFR(T790M); 100 nM): 92%
- remaining binding at 1 µM (EGFR(T790M); 1000 nM): 91%
- remaining binding at 0.1 µM (EPHB1; 100 nM): 96%
- remaining binding at 1 µM (EPHB1; 1000 nM): 79%
- remaining binding at 0.1 µM (EPHB4; 100 nM): 100%
- remaining binding at 1 µM (EPHB4; 1000 nM): 100%
- remaining binding at 0.1 µM (FGFR3; 100 nM): 96%
- remaining binding at 1 µM (FGFR3; 1000 nM): 84%
- remaining binding at 0.1 µM (FLT3(R834Q); 100 nM): 86%
- remaining binding at 1 µM (FLT3(R834Q); 1000 nM): 75%
- remaining binding at 0.1 µM (GRK1; 100 nM): 100%
- remaining binding at 1 µM (GRK1; 1000 nM): 85%
- remaining binding at 0.1 µM (GSK3A; 100 nM): 100%
- remaining binding at 1 µM (GSK3A; 1000 nM): 94%
- remaining binding at 0.1 µM (INSRR; 100 nM): 97%
- remaining binding at 1 µM (INSRR; 1000 nM): 90%
- remaining binding at 0.1 µM (KIT-autoinhibited; 100 nM): 94%
- remaining binding at 1 µM (KIT-autoinhibited; 1000 nM): 84%
- remaining binding at 0.1 µM (MAPKAPK2; 100 nM): 84%
- remaining binding at 1 µM (MAPKAPK2; 1000 nM): 100%
- remaining binding at 0.1 µM (MEK4; 100 nM): 94%
- remaining binding at 1 µM (MEK4; 1000 nM): 73%
- remaining binding at 0.1 µM (PAK7; 100 nM): 98%
- remaining binding at 1 µM (PAK7; 1000 nM): 74%
- remaining binding at 0.1 µM (PIK3CG; 100 nM): 91%
- remaining binding at 1 µM (PIK3CG; 1000 nM): 94%
- remaining binding at 0.1 µM (PIM3; 100 nM): 100%
- remaining binding at 1 µM (PIM3; 1000 nM): 100%
- remaining binding at 0.1 µM (RIPK2; 100 nM): 80%
- remaining binding at 1 µM (RIPK2; 1000 nM): 88%
- remaining binding at 0.1 µM ([1]; 100 nM): 95%
- remaining binding at 1 µM ([1]; 1000 nM): 100%
- remaining binding at 0.1 µM (SGK3; 100 nM): 100%
- remaining binding at 1 µM (SGK3; 1000 nM): 88%
- remaining binding at 0.1 µM (SIK; 100 nM): 93%
- remaining binding at 1 µM (SIK; 1000 nM): 59%
- remaining binding at 0.1 µM (TNK2; 100 nM): 62%
- remaining binding at 1 µM (TNK2; 1000 nM): 25%
- remaining binding at 0.1 µM (WEE1; 100 nM): 99%
- remaining binding at 1 µM (WEE1; 1000 nM): 87%
- remaining binding at 0.1 µM (WEE2; 100 nM): 79%
- remaining binding at 1 µM (WEE2; 1000 nM): 88%
- remaining binding at 0.1 µM (WNK4; 100 nM): 80%
- remaining binding at 1 µM (WNK4; 1000 nM): 95%
- remaining binding at 0.1 µM (p38-alpha; 100 nM): 100%
- remaining binding at 1 µM (p38-alpha; 1000 nM): 100%
